Reference: patent US20050048105A1, “Protease inhibitor compositions for prevention and treatment of skin conditions” (priority 2003, published 2005)
Like-named read-outs stand apart in the source and are kept apart here.

Assays:
[1] = tested on: protease; test: Protease inhibition activity of inhibitor solutions and lotions, fresh and after storage; assay type: biochemical; conditions: for initial protease inhibition activity: freshly prepared preparation; for decrease of inhibitory activity after storage of solution: one month at room temperature, vs fresh solution
Procedure: (§1) The inventor selected glycine soja and DPHP by testing numerous potential inhibitors in vitro to assess their activity against protease enzymes. A protease enzyme present in feces or urine, such as trypsin, chymotrypsin, or elastase, was placed in contact with a substrate (crosslinked albumin, sulfaniloazo-albumin and gelatin). Separately, the protease (trypsin, chymotrypsin or elastase) was incubated with a protease inhibitor and then this combination was placed in contact with the substrate. The substrate-protease or substrate-protease-protease inhibitor combination was then left to incubate.
(§2) At a defined time, the incubation was stopped by the addition of NaOH. Color was developed and read at OD 450. The intensity of the color developed was directly proportional to the amount of substrate digested by the protease.
Using the above methods, two protease inhibitors mentioned by the prior art were tested. […] However, they were left for one month and then tested for activity. After one month at room temperature, the activity of the stabilized AEBSF solution was decreased by 42%.

[2] = biological target: T1, trypsin (Bos taurus, UniProt P00760); test: Back digest of albumin/gelatin dye substrate by trypsin (FIGS. 2 and 4); assay type: biochemical
T1 construct: gene PRSS1
T1 sequence (P00760 24-246): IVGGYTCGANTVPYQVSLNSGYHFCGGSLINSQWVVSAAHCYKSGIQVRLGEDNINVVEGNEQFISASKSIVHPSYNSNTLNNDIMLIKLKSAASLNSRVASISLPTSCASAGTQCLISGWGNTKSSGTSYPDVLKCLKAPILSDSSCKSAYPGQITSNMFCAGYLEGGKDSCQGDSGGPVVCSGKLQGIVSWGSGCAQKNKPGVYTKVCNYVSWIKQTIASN
Procedure: as §1, §2
A back digest was performed with a spectrally active protease substrate, trypsin, and either DPHP or glycine soja. Trypsin was incubated with either DPHP or glycine soja, and for the control, neither DPHP nor glycine soja was used. The trypsin or trypsin+either DPHP or glycine soja was then placed in contact with a substrate, the results of which are shown in FIGS. 3 and 4.
(§3) The substrate used was a crosslinked albumin, sulfaniloazo-albumin and gelatin at a slightly acidic pH. […] This color development can be measured spectrophotometrically at OD 450 and the OD value is proportional to enzymatic activity. […] The OD 450 reading is directly proportional to the enzyme activity (i.e. the higher the value, the higher the enzyme activity).
(§4) A back digest was conducted when particulate suspensions were used as either enzyme or enzyme inhibitor or when lotions were being tested, because the particulate interferes with the OD readings. […] Color development was read at OD 450. […]
After an initial digest, the supernatant was decanted, and an excess of trypsin was added for further digestion of the substrate. After this final digest, supernatant optical density (OD) was read at 450 nm. […]

[3] = tested on: elastase; conditions: studies by the manufacturer (Seppic); cited from earlier work
[4] = tested on: elastase; test: Back digest of albumin/gelatin dye substrate by elastase (FIG. 4); assay type: biochemical
Procedure: as §1
At a defined time, the incubation was stopped by the addition of NaOH. Color was developed and read at OD 450. […]
as §3, §4

[5] = shown by the manufacturer; cited from earlier work
[6] = biological target: chymotrypsin (Bos taurus, UniProt P00766); test: In vitro protease substrate digest with chymotrypsin; assay type: biochemical
Procedure: as §1, §2

[7] = DPHP material itself, back digest, FIG. 4
[8] = listed as dipalmitoyl hydroxyproline

| SMILES | initial protease inhibition activity [1] | decrease of inhibitory activity after storage of solution [1] | inhibition of trypsin (in words) [2] | change in trypsin activity [2, 7] [%] | inhibition of trypsin (in words) [2, 8] | inhibition of elastase (manufacturer) [3] | inhibition of elastase (in words) [4] | change in elastase activity [4, 7] [%] | inhibition of free radicals (manufacturer) [5] | inhibition of chymotrypsin (in words) [6] | inhibition of chymotrypsin (in words) [6, 8] |
| --- | --- | --- | --- | --- | --- | --- | --- | --- | --- | --- | --- |
| Cl.NCCc1ccc(S(=O)(=O)F)cc1 [AEBSF, 4-(2-aminoethyl)-benzenesulfonylfluoride hydrochloride] | very high protease inhibition activity | 42% | – | – | – | – | – | – | – | – | – |
| N=C(N)c1ccc(OCCCCCCOc2ccc(C(=N)N)cc2)cc1.O=S(=O)(O)CCO.O=S(=O)(O)CCO [Elestab, hexamidine diisethionate] | very high protease inhibition activity | about 37% | – | – | – | – | – | – | – | – | – |
| CCCCCCCCCCCCCCCC(=O)O[C@@H]1C[C@@H](C(=O)O)N(C(=O)CCCCCCCCCCCCCCC)C1 [DPHP, dipalmitoyl hydroxyproline] | – | – | does inhibit | −33 | potent inhibitors | potent inhibitor of elastase | does inhibit | −22 | potent inhibitor of free radicals | does inhibit | potent inhibitors |
